Results: PubChem BioAssay (NCI)
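Values below derive from 48-hour exposures of cells grown in 96-well plates, with endpoints linearly interpolated between the two concentrations bracketing the appropriate inhibition level. TGI is the concentration that stops growth completely.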

Tests used:
Assay in all cases: DTP human tumour cell line panel, 48 h
LXFL 529 NSCLC = system: LXFL 529 NSCLC
XF 498 CNS = system: XF 498 CNS
M19-MEL melanoma = system: M19-MEL melanoma
KM20L2 colon = system: KM20L2 colon
SNB-78 CNS = system: SNB-78 CNS
DMS 114 small cell lung = system: DMS 114 small cell lung
HOP-18 NSCLC = system: HOP-18 NSCLC
RXF-631 renal = system: RXF-631 renal
DLD-1 colon = system: DLD-1 colon

Row | SMILES | TGI (LXFL 529 NSCLC) | TGI (XF 498 CNS) | TGI (M19-MEL melanoma) | TGI (KM20L2 colon) | TGI (SNB-78 CNS) | TGI (DMS 114 small cell lung) | TGI (HOP-18 NSCLC) | TGI (RXF-631 renal) | TGI (DLD-1 colon)
1 | C=CCNC(=S)N1c2ccccc2NC(=O)CC1C (stereo not given) | > 100 µM | > 100 µM | > 100 µM | > 100 µM | > 100 µM | > 100 µM | – | – | –
2 | C=C[C@]1(C)CCC2=C(CCC3C2(C)CCC[C@]3(C)CO)C1 (stereo not given in full) | > 100 µM | > 100 µM | > 100 µM | 42.3 µM | > 100 µM | 74.6 µM | > 100 µM | > 100 µM | > 100 µM
3 | COc1ccc(CNC2=C(NC(C)=O)C(=O)c3ccccc3C2=O)cc1 | 14.9 µM | – | 17.4 µM | > 50 µM | 40.6 µM | – | – | – | 22.8 µM
4 | CCOc1ccccc1N=Nc1c(-c2ccccc2)nn(C(=O)CC(=O)Nc2cccc(Cl)c2)c1-c1ccccc1 | > 100 µM | > 100 µM | > 100 µM | > 100 µM | > 100 µM | > 100 µM | > 100 µM | – | > 100 µM
5 | CCOC(=O)C(Cc1ccccc1)NC(=O)c1ccc(N=NN(C)C)cc1 (stereo not given) | > 100 µM | – | > 100 µM | – | – | > 100 µM | – | – | > 100 µM
6 | CC(=O)Nc1ccc(C(=O)NN2C(=O)C(Cl)C2c2cc(Br)ccc2O)cc1 (stereo not given) | > 100 µM | – | 33.7 µM | – | – | – | 62 µM | – | > 100 µM
7 | COC1C=CC(C(=O)[N+]2=Cc3[nH]c4ccccc4c3CC2)O1 (stereo not given) | > 100 µM | – | > 100 µM | > 100 µM | > 100 µM | > 100 µM | > 100 µM | > 100 µM | > 100 µM
8 | O=C(O)C(Cc1c[nH]c2ccccc12)N=Cc1nc(-c2ccccc2)oc1O (stereo not given) | > 100 µM | > 100 µM | > 100 µM | > 100 µM | > 100 µM | > 100 µM | – | – | > 100 µM
9 | CCCN1CN(C(C(=O)N[C@@H]2C(=O)N3C2SC(C)(C)C3C(=O)O)c2ccccc2)CSC1=S (stereo not given in full) | > 100 µM | > 100 µM | > 100 µM | > 100 µM | > 100 µM | 94.1 µM | > 100 µM | – | > 100 µM
10 | O=C(NCc1ccccc1)c1cc2cc(O)c(O)cc2cn1 | > 100 µM | 90.3 µM | 77.3 µM | 84.6 µM | > 100 µM | 24 µM | 41.4 µM | – | > 100 µM
11 | COC(=O)N/N=C(/CCN1CCCC1)CC(c1ccccc1)c1c(O)c2ccccc2oc1=O (stereo not given) | > 100 µM | > 100 µM | > 100 µM | > 100 µM | > 100 µM | – | > 100 µM | – | > 100 µM
12 | COc1ccc(NC(=O)C(=O)C2CNC(=O)NC2=O)c(OC)c1 (stereo not given) | > 100 µM | > 100 µM | – | > 100 µM | > 100 µM | > 100 µM | > 100 µM | – | > 100 µM
13 | O=C1CCCC2=C(N1)C(=O)C=CC2=O | > 100 µM | > 100 µM | > 100 µM | > 100 µM | > 100 µM | > 56.5 µM | > 100 µM | > 100 µM | > 100 µM
